Data on one compound can be found in US20250241890A1, “1,4-DIUREAS AND 1,4-DITHIOUREAS AND USES THEREOF” (Purdue Research Foundation, priority 2024, published 2025).

In assay [1] the target is T1, α-synuclein (α-syn) (Homo sapiens, UniProt P37840).
T1 construct: purchased rPeptide (Watkinsville, GA)
The experiment in a line: Thioflavin T (ThT) fluorescence assay of α-syn fibril formation. Type of assay: biochemical. The note with it: α-syn 2 μM final concentration, compounds at 100 μM, average of three replicates with SEM; read-out: % ThT intensity (100 μM), maximum ThT intensity in percentage. As for the experimental part: Chemical and peptide source. Dimethylsulfoxide (DMSO) and thioflavin-T (ThT) were purchased from Alfa Aesar (Ward Hill, MA). Recombinant α-synuclein (α-syn) was procured from rPeptide (WatKinsville, GA). The recombinant p-tau isoform 1N4R was prepared as published previously (Fortin et al. 2021, Sui et al. 2015, Liu et al. 2020). Concerning the preparation of tau 0N4R, a bacterial expression plasmid consisting of the vector pET30a carrying a cDNA encoding the human Tau 0N4R isoform was a kind gift of Dr. Benjamin Wolozin (Boston University). E. coli stock (Rosetta BL21 E. coli (CamR) containing pET30a [0N4R tau wt] (KanR)) was grown in LB medium supplemented with kanamycin (50 μg/mL) and chloramphenicol (50 μg/mL). Protein over-expression was induced by the addition of 1 mM IPTG for ˜18 hours at 37° C., and cells were pelleted by centrifugation at 6,000 g for 15 minutes at 4° C. The cells were resuspended in lysis buffer (10 mM Hepes, pH 7.4, 50 mM NaCl, 1 mM MgCl2, 1 mM PMSF, 1× PIC, and 0.5 mM DTT) and lysed by sonication at 30 seconds “On” and 1 minute “Off” at ˜30-45% power for ˜3-5 minutes. Lysate was centrifuged at 10,000 rpm for 10 minutes at 4° C., and supernatant was transferred with 7.8 ml (total) of 3M NaCl. The lysate was incubated for 10 minutes in 80° C. water bath, then cooled for 10 minutes in an ice bath. The lysate was centrifuged at 10,000 rpm at 4° C. for 10 minutes, and the supernatant was transferred to a new tube. The supernatant was dialyzed overnight against cation exchange buffer (50 mM MES, […], 1 mM DTT, pH 6.0). The dialysate was loaded onto a HiPrep SP HP column, and proteins were eluted with a linear gradient ranging from 50 mM to 1 M NaCl. General Characterizations. ^1H and ^13C {1H} NMR spectra were recorded using a 500 MHz Bruker instrument working at a frequency of 500 MHz for ^1H and at 126 MHz for ^13C. Chemical shifts are reported in ppm using residual solvent resonances as internal reference (δ 2.50 and δ 39.51 for ^1H and ^13C in DMSO-d6, respectively). ^1H NMR data are reported as follows. b=broad, s=singlet, d=doublet, t=triplet, q=quartet, and m=multiplet. Coupling constants are given in hertz. The purity of all compounds and synthetic intermediates was judged to be 95% or better based on ^1H NMR. IR measurements were performed in a Nicolet FTIR as thin films in the Purdue Drug Discovery facility. High-resolution mass spectrometry analyses were conducted at the MSU Mass Spectrometry facility. Thioflavin fluorescence assays. […] The recombinant α-syn obtained from rPeptide has been validated with proper quality control to confirm the monomeric state of the protein. Kinetics of fibril formation have been performed using ThT as published previously.^6, 12, 13, 24 The fluorescence emission experiments were performed with the excitation and emission wavelengths set at 440 and 485 nm, respectively, with a Synergy HT multi-mode microplate reader (BioTek, Winooski, VT). Samples were measured in three replicates. Experiments were repeated three times using different α-syn stock solutions. For each time point, arbitrary units of fluorescence were calculated from the mean values normalized against the maximum value. The percentage of fluorescence intensity at the plateau phase in Table 1 was expressed as mean #SEM. Concerning the dose response curve depicted in FIG. 2, the data were plotted using GraphPad Prism. Photo-induced Cross-linking of Unmodified Proteins (PICUP) Assay. To induce oligomerization by cross-linking, α-syn (from Rpeptide, LLC) was diluted in 10 mM phosphate buffer (pH 7.4) to reach a final concentration of 50 μM. Different compounds were added to the protein solution at a final concentration of 50 μM, resulting in a molar ratio of 1:1. PICUP assays were performed with the following controls: samples without light exposition, without Ru(bpy) or ammonium persulfate, and without compound (i.e., 0.125% DMSO). […]

The target of assay [2] is T2, tau isoform 0N4R (Homo sapiens, UniProt P10636).
T2 construct: made in house; host or cells: Rosetta BL21 E. coli
T2 sequence (P10636 1-383 isoform P10636-6): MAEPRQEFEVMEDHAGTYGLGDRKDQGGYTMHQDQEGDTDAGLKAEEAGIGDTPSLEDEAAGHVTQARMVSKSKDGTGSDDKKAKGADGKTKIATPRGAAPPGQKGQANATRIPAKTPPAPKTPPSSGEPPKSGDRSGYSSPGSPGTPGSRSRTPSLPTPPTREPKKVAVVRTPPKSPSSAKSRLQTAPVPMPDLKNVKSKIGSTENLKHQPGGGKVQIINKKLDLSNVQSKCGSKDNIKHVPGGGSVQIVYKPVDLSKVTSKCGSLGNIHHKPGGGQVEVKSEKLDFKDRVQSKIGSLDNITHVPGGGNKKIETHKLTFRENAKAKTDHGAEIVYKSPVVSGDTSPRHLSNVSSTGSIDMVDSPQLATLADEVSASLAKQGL
The experiment in a line: PICUP assay of tau 0N4R oligomer formation. It is filed as biochemical. Conditions: tau 10 μM, compound 50 μM (molar ratio 1:5). As for the experimental part: FIG. 5. […] Compounds 1, 2, and 8 were selected for their α-syn anti-oligomerization activity. Compound 7 was used as di-urea counterpart of compound 8, as compound 1 is the di-urea counterpart of compound 2, a dithiourea derivative. Tau (10 μM) was cross-linked (PICUP assay) with different concentrations of the di-substituted aminoindolyl derivatives at 50 μM (molar ratio 1:5).
Chemical and peptide source. Dimethylsulfoxide (DMSO) and thioflavin-T (ThT) were purchased from Alfa Aesar (Ward Hill, MA). Recombinant α-synuclein (α-syn) was procured from rPeptide (WatKinsville, GA). The recombinant p-tau isoform 1N4R was prepared as published previously (Fortin et al. 2021, Sui et al. 2015, Liu et al. 2020). Concerning the preparation of tau 0N4R, a bacterial expression plasmid consisting of the vector pET30a carrying a cDNA encoding the human Tau 0N4R isoform was a kind gift of Dr. Benjamin Wolozin (Boston University). E. coli stock (Rosetta BL21 E. coli (CamR) containing pET30a [0N4R tau wt] (KanR)) was grown in LB medium supplemented with kanamycin (50 μg/mL) and chloramphenicol (50 μg/mL). […] General Characterizations. ^1H and ^13C {1H} NMR spectra were recorded using a 500 MHz Bruker instrument working at a frequency of 500 MHz for ^1H and at 126 MHz for ^13C. […] Thioflavin fluorescence assays. Thioflavin fluorescence assays were used to monitor fibril formation of commercial recombinant α-syn at a final concentration of 2 μM and treated with control DMSO and different compounds. […] Kinetics of fibril formation have been performed using ThT as published previously.^6, 12, 13, 24 The fluorescence emission experiments were performed with the excitation and emission wavelengths set at 440 and 485 nm, respectively, with a Synergy HT multi-mode microplate reader (BioTek, Winooski, VT). Samples were measured in three replicates. […] For each time point, arbitrary units of fluorescence were calculated from the mean values normalized against the maximum value. The percentage of fluorescence intensity at the plateau phase in Table 1 was expressed as mean #SEM. […]

`O=C(Nc1ccc(NC(=O)Nc2cccc3cc[nH]c23)cc1)Nc1cccc2cc[nH]c12` [Compound 7, 3-(1H-indol-7-yl)-1-(4-{[(1H-indol-7-yl)carbamoyl]amino}phenyl)urea]: in assay [1], the remaining activity at 100 µM is 52.4%. Also, in assay [2], the “effect on tau 0N4R oligomer formation by PICUP” value is given as “None of these compounds were able to reduce the tau 0N4R oligomer formation”.
